The subject of one series is St. Aereus. Put plainly: antimicrobial activity, agar dilution method. The format is cell-based. To be noted: after 10, 20, 40 and 60 min at all dilutions 1:100, 1:200, 1:400, 1:800. The procedure: (§1) The antibacterial properties of the synthesized compounds were studied by the method of agar dilution. Test solutions of each compound was prepared in a concentration of 1% using dimethylformamide as a solvent. Then the test solutions were diluted in a physiological solution to obtain the final experimental dilutions of 1:100, 1:200, 1:400, and 1:800. The effect of these substances was compared with furacillin in a controllable study. The testing microbes used were gram positive bacteria St. Aereus, gram negative bacteria E. Coli, and Ps. aeruginosa and Candida albicans fungi. The experiments used for this survey were a meat-pentonlu agar (EPA) for cultivation of bacteria and a Saburo environment for fungi. Each experiment used 1 mL of test solution on each plate for 500 min. Next, 2 drops of emulsified test solution with microbes feel were added. All experimental samples were taken from the agar after 10, 20, 40, 60 minutes in the environment on the basis of Patrk planted. Bacteria were cultivated at a temperature of 37° ° C. for 1 day and the mushroom was kept in a thermostat for […] at a temperature of 28° C. Then results were checked. Results for the control and the antimicrobial activity for the synthesized compounds are listed in Table 1 below. […]
A general note: Agar dilution tests growth on a series of plates holding different concentrations.

The test system of a further series is Ps. aeruginosa. Put plainly: antimicrobial activity, agar dilution method. To be noted: after 10, 20, 40 and 60 min at all dilutions 1:100, 1:200, 1:400, 1:800. The format is cell-based. On the procedure: as §1
The test system of the next series is E. Coli. In words: antimicrobial activity, agar dilution method. The format is cell-based. The settings on record: after 10, 20, 40 and 60 min at all dilutions 1:100, 1:200, 1:400, 1:800. The procedure: as §1
The subject of another series is Candida albicans. In words: antimicrobial activity, agar dilution method. The format is cell-based. The settings on record: after 10, 20, 40 and 60 min at all dilutions 1:100, 1:200, 1:400, 1:800. The procedure:
as §1

Take `CN(C)CCCn1c(-c2cccnc2)nc(-c2ccccc2)c1-c1ccccc1` [3-(4,5-Diphenyl-2-(pyridin-3-yl)-1H-imidazol-1-yl)-N,N-dimethylpropan-1-amine]: the inhibition activity entry with St. Aereus, with Ps. aeruginosa, with E. Coli and in the series with Candida albicans was “highest inhibition activity” throughout.

As a reminder, the melting point is the temperature of the solid-liquid transition. `CCCCn1c(-c2csc3ccccc23)nc(-c2ccccc2)c1-c1ccccc1` [2-(Benzo[b]thiophen-3-yl)-1-butyl-4,5-diphenyl-1H-imidazole] displayed a melting point of 151 to 153 °C. In addition, the inhibition activity result in the series with St. Aereus is listed as “most inhibition activity”. Also, the inhibition activity entry in the series on Ps. aeruginosa is listed as “most inhibition activity”. Further, the inhibition activity entry in the series on E. Coli is “most inhibition activity”. Also, the inhibition activity entry with Candida albicans was “most inhibition activity”.

The record behind these values is patent publication US11999712B1, “2-(benzo[b]thiophen-3-yl)-1-butyl-4,5-diphenyl-1H-imidazole as an anti-inflammatory and anti-microbial compound” (KING FAISAL UNIVERSITY, priority 2023, dated 2024).
